In ChEMBL document CHEMBL1201862, “PubChem BioAssay data set” (2004):
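Assay format: 96-well plates, 48-hour exposure. At the GI50, growth is halved.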 Calls of active or inactive are those of the source. Cut-off read from the data, not from the text of the source: active = GI50 up to about 1.1 µM and inactive = higher.

Legend:
Test in all cases: growth of human tumour cells (NCI), 48 h
HOP-18 = test system: HOP-18
NCI-H460 = test system: NCI-H460
UO-31 = test system: UO-31
CCRF-CEM = test system: CCRF-CEM
UACC-62 = test system: UACC-62
U-251 = test system: U-251
SK-MEL-28 = test system: SK-MEL-28
MOLT-4 = test system: MOLT-4
SN12C = test system: SN12C
OVCAR-8 = test system: OVCAR-8
SW-620 = test system: SW-620
HOP-92 = test system: HOP-92
OVCAR-5 = test system: OVCAR-5
HCT-116 = test system: HCT-116
NCI-H522 = test system: NCI-H522
A498 = test system: A498
HT-29 = test system: HT-29

Measured: GI50

C[C@]12CCC3[C@@H](CC[C@@H]4c5nonc5CC[C@]34C)C1C/C(=N/O)C2=O (some centres not stated)
inactive: HOP-18 > 100 µM | NCI-H460 > 100 µM | UO-31 5.41 µM | CCRF-CEM 56.5 µM | UACC-62 63.7 µM | U-251 > 100 µM | SK-MEL-28 27.1 µM | MOLT-4 59.7 µM | SN12C > 100 µM | OVCAR-8 > 100 µM | SW-620 > 100 µM | HOP-92 46.5 µM | OVCAR-5 > 100 µM | HCT-116 > 100 µM | NCI-H522 24.6 µM | A498 > 100 µM | HT-29 > 100 µM

CCN(CC)c1c(C(=O)/C=C/c2ccc(F)cc2)c(-c2ccccc2)nn(C)c1=O
inactive: HOP-18 21.2 µM | NCI-H460 4.49 µM | UO-31 11.3 µM | CCRF-CEM 2.11 µM | UACC-62 10.3 µM | U-251 5.98 µM | SK-MEL-28 14.1 µM | MOLT-4 2.23 µM | SN12C 6.93 µM | OVCAR-8 4.7 µM | SW-620 8.59 µM | HOP-92 3.85 µM | OVCAR-5 22.4 µM | HCT-116 3.87 µM | NCI-H522 3.57 µM | A498 7.57 µM | HT-29 6.5 µM

c1ccc2c(NCCCCCCNc3cccc4ccccc34)cccc2c1
inactive: HOP-18 > 100 µM | NCI-H460 > 100 µM | UO-31 98.2 µM | CCRF-CEM 38.8 µM | UACC-62 64.6 µM | U-251 > 100 µM | SK-MEL-28 > 100 µM | MOLT-4 44.3 µM | SN12C > 100 µM | OVCAR-8 > 100 µM | SW-620 74.5 µM | HOP-92 50.7 µM | OVCAR-5 > 100 µM | HCT-116 > 100 µM | NCI-H522 > 100 µM | A498 > 100 µM | HT-29 > 100 µM

Cc1c2ccccc2c(=O)n2c(-c3ccccn3)cccc12
inactive: HOP-18 > 100 µM | NCI-H460 > 100 µM | UO-31 > 100 µM | CCRF-CEM > 100 µM | UACC-62 > 100 µM | U-251 > 100 µM | SK-MEL-28 > 100 µM | MOLT-4 79.8 µM | SN12C > 100 µM | OVCAR-8 > 100 µM | SW-620 > 100 µM | HOP-92 > 100 µM | OVCAR-5 > 10 µM | HCT-116 > 100 µM | NCI-H522 > 100 µM | A498 29.8 µM | HT-29 > 100 µM

COC(=O)/C(=N\O)C(C(=O)C=C(C)C)C(=O)C(=O)Nc1ccccc1C (configuration not stated)
inactive: HOP-18 > 100 µM | NCI-H460 > 100 µM | UO-31 > 100 µM | CCRF-CEM > 100 µM | UACC-62 > 100 µM | U-251 > 100 µM | SK-MEL-28 > 100 µM | MOLT-4 > 100 µM | SN12C > 100 µM | OVCAR-8 > 100 µM | SW-620 > 100 µM | HOP-92 > 100 µM | OVCAR-5 > 100 µM | HCT-116 > 100 µM | NCI-H522 > 100 µM | A498 > 100 µM | HT-29 > 100 µM

O=Cc1c(O)ccc2ccc(O)c(-c3c(O)ccc4ccc(O)cc34)c12
inactive: HOP-18 49.5 µM | NCI-H460 > 100 µM | UO-31 > 100 µM | CCRF-CEM 99.3 µM | UACC-62 77.8 µM | U-251 > 100 µM | SK-MEL-28 > 100 µM | MOLT-4 > 100 µM | SN12C > 100 µM | OVCAR-8 > 100 µM | SW-620 > 100 µM | HOP-92 66.7 µM | OVCAR-5 > 100 µM | HCT-116 > 100 µM | NCI-H522 80.9 µM | A498 43.2 µM | HT-29 > 100 µM
